# Non-standard residues stand in square brackets, D forms with d. Residues, ends and D or L forms follow the SMILES beside them. *: point of attachment. Met(O2) = CS(=O)(=O)CC[C@H](N)C(=O)O; Cha = N[C@@H](CC1CCCCC1)C(=O)O; Tle = CC(C)(C)[C@H](N)C(=O)O; Nva = CCC[C@H](N)C(=O)O; Cbz = O=C(OCc1ccccc1)*; Boc = CC(C)(C)OC(=O)*
# Molecular target: T1, SARS-CoV-2 M^pro (Severe acute respiratory syndrome coronavirus 2, UniProt P0DTD1)
# Assay: FRET-based enzymatic assay for SARS-CoV-2 main protease
# Format: biochemical
# Conditions: not given
row,Structure (SMILES),IC50
1,CSCC[C@H](NC(=O)[C@H](CC(C)C)NC(=O)CNC(=O)OCc1ccccc1)C(=O)C(=O)NC1CC1 [Jun9-47-4],1200 nM
2,CC(C)C[C@H](NC(=O)CNC(=O)OCc1ccccc1)C(=O)N[C@@H](CC[S+](C)[O-])C(=O)C(=O)NC1CC1 (stereo partly drawn) [Jun9-24-1],510 nM
3,CSCC[C@@H](C=O)NC(=O)[C@H](CC(C)C)NC(=O)[C@H](CC1CCCCC1)NC(C)=O [Jun9-66-2] (Ac-[Cha]-Leu-Met-aldehyde),290 nM
4,CSCC[C@H](NC(=O)[C@H](CC1CCCCC1)NC(=O)[C@@H](NC(C)=O)C(C)(C)C)C(=O)C(=O)NC1CC1 [Jun9-66-3],1520 nM
5,CC(=O)N[C@@H](Cc1ccccc1)C(=O)N[C@@H](CC(C)C)C(=O)N[C@@H](CC[S+](C)[O-])C(=O)C(=O)NC1CC1 (stereo partly drawn) [Jun9-24-4],290 nM
6,CSCC[C@H](NC(=O)[C@H](CC(C)C)NC(=O)[C@H](CC(C)C)NC(C)=O)C(=O)C(=O)NCc1ccccc1 [Jun9-11-5],1770 nM
7,CSCC[C@@H](C=O)NC(=O)[C@H](CC(C)C)NC(C)=O [Jun8-102-1] (Ac-Leu-Met-aldehyde),4770 nM
8,CC(=O)N[C@@H](CC(C)C)C(=O)N[C@@H](CC(C)C)C(=O)N[C@@H](CCS(C)(=O)=O)C(=O)C(=O)NC1CC1 [Jun9-65-1],180 nM
9,CC(=O)N[C@@H](Cc1ccccc1)C(=O)N[C@@H](CC(C)C)C(=O)N[C@@H](CCS(C)(=O)=O)C(=O)C(=O)NC1CC1 [Jun9-56-3],140 nM
10,CSCC[C@@H](C=O)NC(=O)[C@H](CC(C)C)NC(=O)[C@H](CC(C)C)NC(=O)OCc1ccccc1 [Jun8-61-4] (Cbz-Leu-Leu-Met-aldehyde),110 nM
11,"CC(C)[C@H](NC(=O)OCc1ccccc1)C(=O)N[C@H](C=O)Cc1ccccc1 [calpain inhibitor III (MDL28170) (57), calpain inhibitor III] (Cbz-Val-Phe-aldehyde)",> 20000 nM
12,CSCC[C@@H](C=O)NC(=O)[C@H](CC(C)C)NC(=O)[C@H](Cc1ccccc1)NC(C)=O [Jun9-2-5] (Ac-Phe-Leu-Met-aldehyde),270 nM
13,CSCC[C@H](NC(=O)[C@H](CC(C)C)NC(=O)[C@H](CC(C)C)NC(C)=O)C(=O)C(=O)NC(C)C [Jun9-11-4],5990 nM
14,CSCC[C@@H](C=O)NC(=O)[C@H](CC(C)C)NC(=O)OCc1ccccc1 [Jun8-102-2] (Cbz-Leu-Met-aldehyde),910 nM
15,CSCC[C@@H](C=O)NC(=O)[C@H](CC(C)C)NC(=O)OC(C)(C)C [Jun9-2-3] (Boc-Leu-Met-aldehyde),> 20000 nM
16,CCC[C@@H](C=O)NC(=O)[C@H](CC(C)C)NC(=O)[C@H](CC(C)C)NC(C)=O [Jun9-48-3] (Ac-Leu-Leu-[Nva]-aldehyde),38500 nM
17,CCC[C@@H](C=O)NC(=O)[C@H](CC(C)C)NC(=O)CNC(=O)OCc1ccccc1 [Jun9-52-3] (Cbz-Gly-Leu-[Nva]-aldehyde),> 20000 nM
18,CSCC[C@H](NC(=O)[C@H](CC(C)C)NC(=O)[C@H](CC(C)C)NC(=O)OCc1ccccc1)C(=O)C(=O)NC1CC1 [Jun8-43-3],2800 nM

row,Structure (SMILES),IC50
1,CC(=O)N[C@@H](CC(C)C)C(=O)N[C@@H](CC(C)C)C(=O)N[C@H](C=O)CCS(C)(=O)=O [Jun9-58-1] (Ac-Leu-Leu-[Met(O2)]-aldehyde),490 nM
2,CCC[C@H](NC(=O)[C@H](CC(C)C)NC(=O)[C@H](CC(C)C)NC(C)=O)C(=O)C(=O)NC1CC1 [Jun9-49-1],5890 nM
3,CSCC[C@H](NC(=O)[C@H](CC(C)C)NC(=O)[C@H](Cc1ccccc1)NC(C)=O)C(=O)C(=O)NC1CC1 [Jun9-24-3],460 nM
4,CSCC[C@H](NC(=O)[C@H](CC(C)C)NC(=O)[C@H](CC1CCCCC1)NC(C)=O)C(=O)C(=O)NC1CC1 [Jun9-66-4],220 nM
5,CSCC[C@@H](C=O)NC(=O)[C@H](CC1CCCCC1)NC(=O)[C@@H](NC(C)=O)C(C)(C)C [Jun9-66-1] (Ac-[Tle]-[Cha]-Met-aldehyde),320 nM
6,CCC[C@H](NC(=O)[C@H](CC(C)C)NC(=O)[C@@H](NC(=O)OCc1ccccc1)C(C)C)C(=O)C(=O)NC1CC1 [Jun8-29-2],480 nM
7,CCC[C@H](NC(C)=O)C(=O)N[C@@H](CC(C)C)C(=O)N[C@@H](CCSC)C(=O)C(=O)NC1CC1 [Jun9-24-5],640 nM
8,CCC[C@H](NC(=O)[C@H](CC(C)C)NC(=O)[C@H](Cc1ccccc1)NC(=O)OCc1ccccc1)C(=O)C(=O)NC1CC1 [Jun8-29-4],480 nM
9,CC(C)C[C@H](NC(=O)CNC(=O)OCc1ccccc1)C(=O)N[C@@H](CCS(C)(=O)=O)C(=O)C(=O)NC1CC1 [Jun9-56-2],130 nM
10,CC(=O)N[C@@H](CC1CCCCC1)C(=O)N[C@@H](CC(C)C)C(=O)N[C@@H](CCS(C)(=O)=O)C(=O)C(=O)NC1CC1 [Jun9-82-2],100 nM
11,CCC[C@H](NC(=O)[C@H](CC(C)C)NC(=O)CNC(=O)OCc1ccccc1)C(=O)C(=O)NC1CC1 [Jun9-52-4],17700 nM
12,CC(=O)N[C@@H](CC(C)C)C(=O)N[C@@H](CC(C)C)C(=O)N[C@@H](CC[S+](C)[O-])C(=O)C(=O)NC1CC1 (stereo partly drawn) [Jun9-59-2],360 nM
13,CSCC[C@@H](C=O)NC(=O)[C@H](CC(C)C)NC(=O)[C@H](CC(C)C)NC(=O)OC(C)(C)C [Jun9-2-4] (Boc-Leu-Leu-Met-aldehyde),390 nM
14,CC(=O)N[C@@H](CC1CCCCC1)C(=O)N[C@@H](CC(C)C)C(=O)N[C@@H](CC[S+](C)[O-])C(=O)C(=O)NC1CC1 (stereo partly drawn) [Jun9-87-4],270 nM
15,CCC[C@H](NC(=O)[C@H](CC(C)C)NC(=O)[C@H](CC(C)C)NC(=O)OCc1ccccc1)C(=O)C(=O)NC1CC1 [Jun8-18-4],340 nM
16,CSCC[C@H](NC(=O)[C@H](CC(C)C)NC(=O)[C@H](CC(C)C)NC(C)=O)C(=O)C(=O)NC1CC1 [Jun9-11-3],540 nM
17,CCC[C@H](NC(=O)[C@H](CC(C)C)NC(=O)OCc1ccccc1)C(=O)C(=O)NC1CC1 [Jun8-18-2],> 20000 nM

# Same assay, conditions: read-out: inhibition against M^pro in primary screening
row,Structure (SMILES),inhibition at 20 µM
1,"CC(C)(C)NC(=O)N[C@H](C(=O)N1C[C@H]2[C@@H]([C@H]1C(=O)NC(CC1CCC1)C(=O)C(N)=O)C2(C)C)C(C)(C)C (stereo partly drawn) [Boceprevir (28), Boceprevir]",> 60%
2,"COc1ccc2c(O[C@@H]3CC4C(=O)N[C@]5(C(=O)NS(=O)(=O)C6CC6)C[C@@H]5/C=C\CCCCN(C)C(=O)C4C3)cc(-c3nc(C(C)C)cs3)nc2c1C (stereo partly drawn) [Simeprevir (24), Simeprevir]",> 60%
3,"CCCC[C@H](NC(=O)[C@@H]1[C@@H]2[C@H](CN1C(=O)[C@@H](NC(=O)NC1(CS(=O)(=O)C(C)(C)C)CCCCC1)C(C)(C)C)C2(C)C)C(=O)C(=O)NC1CC1 [Narlaprevir (29), Narlaprevir]",> 60%
4,"CC(C)C[C@@H](C=O)NC(=O)[C@H](CC(C)C)NC(=O)[C@H](CC(C)C)NC(=O)OCc1ccccc1 [MG-132 (43), MG-132] (Cbz-Leu-Leu-Leu-aldehyde)",> 60%

# Molecular target: T1, SARS-CoV-2 M^pro
# Assay: not given
# Format: binding
# Conditions: melting temperature with compound; DMSO 55.74; 30 μM compound
row,Structure (SMILES),2019-nCoV 3CL TSA Tm
1,"CC(C)[C@H](NC(=O)OCc1ccccc1)C(=O)N[C@H](C=O)Cc1ccccc1 [calpain inhibitor III (MDL28170) (57), calpain inhibitor III] (Cbz-Val-Phe-aldehyde)",55.36 ± 0.14 °C
2,"CSCC[C@@H](C=O)NC(=O)[C@H](CC(C)C)NC(=O)[C@H](CC(C)C)NC(C)=O [Calpain inhibitor II (61), Calpain inhibitor II] (Ac-Leu-Leu-Met-aldehyde)",62.93 ± 0.14 °C
3,"CCC[C@@H](C=O)NC(=O)[C@H](CC(C)C)NC(=O)[C@H](CC(C)C)NC(=O)OCc1ccccc1 [MG-115 (60), MG-115] (Cbz-Leu-Leu-[Nva]-aldehyde)",60.51 ± 0.28 °C
4,"CC(C)(C)NC(=O)N[C@H](C(=O)N1C[C@H]2[C@@H]([C@H]1C(=O)NC(CC1CCC1)C(=O)C(N)=O)C2(C)C)C(C)(C)C (stereo partly drawn) [Boceprevir (28), Boceprevir]",62.41 ± 0.21/6.67 °C
5,"CCCC[C@H](NC(=O)[C@@H]1[C@@H]2[C@H](CN1C(=O)[C@@H](NC(=O)NC1(CS(=O)(=O)C(C)(C)C)CCCCC1)C(C)(C)C)C2(C)C)C(=O)C(=O)NC1CC1 [Narlaprevir (29), Narlaprevir]",60.92 ± 0.14/5.18 °C
6,"CC(C)C[C@@H](C=O)NC(=O)[C@@H](NS(=O)(=O)c1ccc(F)cc1)C(C)C [Calpain inhibitor VI (58), Calpain inhibitor VI]",55.46 ± 0.14 °C
7,"CCCC[C@@H](C=O)NC(=O)[C@H](CC(C)C)NC(=O)OCc1ccccc1 [Calpeptin (56), Calpeptin]",56.84 ± 0.00 °C

# Same assay, conditions: shift vs DMSO; 30 μM compound
row,Structure (SMILES),2019-nCoV 3CL TSA ΔTm
1,"CC(C)[C@H](NC(=O)OCc1ccccc1)C(=O)N[C@H](C=O)Cc1ccccc1 [calpain inhibitor III (MDL28170) (57), calpain inhibitor III] (Cbz-Val-Phe-aldehyde)",−0.38 °C
2,"CSCC[C@@H](C=O)NC(=O)[C@H](CC(C)C)NC(=O)[C@H](CC(C)C)NC(C)=O [Calpain inhibitor II (61), Calpain inhibitor II] (Ac-Leu-Leu-Met-aldehyde)",6.65 °C
3,"CCC[C@@H](C=O)NC(=O)[C@H](CC(C)C)NC(=O)[C@H](CC(C)C)NC(=O)OCc1ccccc1 [MG-115 (60), MG-115] (Cbz-Leu-Leu-[Nva]-aldehyde)",4.77 °C
4,"CC(C)C[C@@H](C=O)NC(=O)[C@@H](NS(=O)(=O)c1ccc(F)cc1)C(C)C [Calpain inhibitor VI (58), Calpain inhibitor VI]",−0.28 °C
5,"CCCC[C@@H](C=O)NC(=O)[C@H](CC(C)C)NC(=O)OCc1ccccc1 [Calpeptin (56), Calpeptin]",1.1 °C

# Source: patent US12715896B2 (priority 2020, dated 2026)
